Experimental data taken from the NIST ThermoML archive (doi:10.1021/acs.jced.9b00442).
Numbers after ± are expanded uncertainties.

Experiments:
[1] = 100 kPa, Liquid; for electrical conductivity: Frequency=0.0006 MHz, Alternating current cell with electrodes; for viscosity: Concentric cylinders viscometry; for mass density: Vibrating tube method
[2] = refractive index (Na D-line) (dimensionless); conditions: 100 kPa, Liquid, Standard Abbe refractometry

## CC[N+](C)(C)CCOC.O=S(=O)([N-]S(=O)(=O)C(F)(F)F)C(F)(F)F
[1]; 283.15 K
  electrical conductivity: 0.141 ± 0.003 S/m
[1]; 288.15 K
  viscosity: 100.4 ± 4.1 mPa·s
  electrical conductivity: 0.182 ± 0.004 S/m
  mass density: 1440.5 ± 1.1 kg/m3
[1]; 289.15 K
  mass density: 1439.5 ± 1.1 kg/m3
[1]; 290.15 K
  mass density: 1438.6 ± 1.1 kg/m3
[1]; 291.15 K
  mass density: 1437.6 ± 1.1 kg/m3
[1]; 292.15 K
  mass density: 1436.7 ± 1.1 kg/m3
[1]; 293.15 K
  viscosity: 78.3 ± 3.2 mPa·s
  electrical conductivity: 0.23 ± 0.005 S/m
  mass density: 1435.7 ± 1.1 kg/m3
[1]; 294.15 K
  mass density: 1434.8 ± 1.1 kg/m3
[1]; 295.15 K
  mass density: 1433.8 ± 1.1 kg/m3
[1]; 296.15 K
  mass density: 1432.8 ± 1.1 kg/m3
[1]; 297.15 K
  mass density: 1431.9 ± 1.1 kg/m3
[1]; 298.15 K
  viscosity: 61.5 ± 2.5 mPa·s
  electrical conductivity: 0.285 ± 0.006 S/m
  mass density: 1431 ± 1.1 kg/m3
[1]; 299.16 K
  mass density: 1430 ± 1.1 kg/m3
[1]; 300.16 K
  mass density: 1429.1 ± 1.1 kg/m3
[1]; 301.15 K
  mass density: 1428.1 ± 1.1 kg/m3
[1]; 302.15 K
  mass density: 1427.2 ± 1.1 kg/m3
[1]; 303.15 K
  viscosity: 49.5 ± 2 mPa·s
  electrical conductivity: 0.347 ± 0.007 S/m
  mass density: 1426.2 ± 1.1 kg/m3
[1]; 304.15 K
  mass density: 1425.3 ± 1.1 kg/m3
[1]; 305.15 K
  mass density: 1424.4 ± 1.1 kg/m3
[1]; 306.15 K
  mass density: 1423.4 ± 1.1 kg/m3
[1]; 307.15 K
  mass density: 1422.5 ± 1.1 kg/m3
[1]; 308.15 K
  viscosity: 40.5 ± 1.6 mPa·s
  electrical conductivity: 0.415 ± 0.008 S/m
  mass density: 1421.6 ± 1.1 kg/m3
[1]; 309.15 K
  mass density: 1420.6 ± 1.1 kg/m3
[1]; 310.15 K
  mass density: 1419.7 ± 1.1 kg/m3
[1]; 311.15 K
  mass density: 1418.8 ± 1.1 kg/m3
[1]; 312.15 K
  mass density: 1417.8 ± 1.1 kg/m3
[1]; 313.15 K
  viscosity: 33.9 ± 1.4 mPa·s
  electrical conductivity: 0.489 ± 0.01 S/m
  mass density: 1416.9 ± 1.1 kg/m3
[1]; 314.15 K
  mass density: 1416 ± 1.1 kg/m3
[1]; 315.15 K
  mass density: 1415.1 ± 1.1 kg/m3
[1]; 316.15 K
  mass density: 1414.1 ± 1.1 kg/m3
[1]; 317.15 K
  mass density: 1413.2 ± 1.1 kg/m3
[1]; 318.15 K
  viscosity: 28.2 ± 1.1 mPa·s
  electrical conductivity: 0.57 ± 0.011 S/m
  mass density: 1412.3 ± 1.1 kg/m3
[1]; 319.15 K
  mass density: 1411.4 ± 1.1 kg/m3
[1]; 320.15 K
  mass density: 1410.4 ± 1.1 kg/m3
[1]; 321.15 K
  mass density: 1409.5 ± 1.1 kg/m3
[1]; 322.15 K
  mass density: 1408.6 ± 1.1 kg/m3
[1]; 323.15 K
  viscosity: 24 ± 1 mPa·s
  electrical conductivity: 0.659 ± 0.013 S/m
  mass density: 1407.7 ± 1.1 kg/m3
[1]; 324.15 K
  mass density: 1406.8 ± 1.1 kg/m3
[1]; 325.15 K
  mass density: 1405.9 ± 1.1 kg/m3
[1]; 326.15 K
  mass density: 1404.9 ± 1.1 kg/m3
[1]; 327.15 K
  mass density: 1404 ± 1.1 kg/m3
[1]; 328.15 K
  viscosity: 20.6 ± 0.8 mPa·s
  mass density: 1403.1 ± 1.1 kg/m3
[1]; 329.15 K
  mass density: 1402.2 ± 1.1 kg/m3
[1]; 330.15 K
  mass density: 1401.3 ± 1.1 kg/m3
[1]; 331.15 K
  mass density: 1400.4 ± 1.1 kg/m3
[1]; 332.15 K
  mass density: 1399.4 ± 1.1 kg/m3
[1]; 333.15 K
  viscosity: 18 ± 0.7 mPa·s
  mass density: 1398.5 ± 1.1 kg/m3
[1]; 334.15 K
  mass density: 1397.6 ± 1.1 kg/m3
[1]; 335.16 K
  mass density: 1396.7 ± 1.1 kg/m3
[1]; 336.15 K
  mass density: 1395.8 ± 1.1 kg/m3
[1]; 337.15 K
  mass density: 1394.9 ± 1.1 kg/m3
[1]; 338.15 K
  viscosity: 15.6 ± 0.6 mPa·s
  mass density: 1394 ± 1.1 kg/m3
[1]; 339.15 K
  mass density: 1393.1 ± 1.1 kg/m3
[1]; 340.15 K
  mass density: 1392.2 ± 1.1 kg/m3
[1]; 341.15 K
  mass density: 1391.3 ± 1.1 kg/m3
[1]; 342.15 K
  mass density: 1390.4 ± 1.1 kg/m3
[1]; 343.15 K
  viscosity: 13.7 ± 0.6 mPa·s
  mass density: 1389.5 ± 1.1 kg/m3
[1]; 344.15 K
  mass density: 1388.6 ± 1.1 kg/m3
[1]; 345.15 K
  mass density: 1387.7 ± 1.1 kg/m3
[1]; 346.15 K
  mass density: 1386.7 ± 1.1 kg/m3
[1]; 347.15 K
  mass density: 1385.8 ± 1.1 kg/m3
[1]; 348.15 K
  viscosity: 12.2 ± 0.5 mPa·s
  mass density: 1384.9 ± 1.1 kg/m3
[1]; 349.15 K
  mass density: 1384 ± 1.1 kg/m3
[1]; 350.15 K
  mass density: 1383.1 ± 1.1 kg/m3
[1]; 351.15 K
  mass density: 1382.2 ± 1.1 kg/m3
[1]; 352.15 K
  mass density: 1381.3 ± 1.1 kg/m3
[1]; 353.15 K
  viscosity: 11 ± 0.4 mPa·s
  mass density: 1380.4 ± 1.1 kg/m3
[1]; 354.15 K
  mass density: 1379.5 ± 1.1 kg/m3
[1]; 355.15 K
  mass density: 1378.6 ± 1.1 kg/m3
[1]; 356.15 K
  mass density: 1377.7 ± 1.1 kg/m3
[1]; 357.15 K
  mass density: 1376.9 ± 1.1 kg/m3
[1]; 358.15 K
  viscosity: 9.7 ± 0.4 mPa·s
  mass density: 1376 ± 1.1 kg/m3
[1]; 359.15 K
  mass density: 1375.1 ± 1.1 kg/m3
[1]; 360.15 K
  mass density: 1374.2 ± 1.1 kg/m3
[1]; 361.15 K
  mass density: 1373.3 ± 1.1 kg/m3
[1]; 362.16 K
  mass density: 1372.4 ± 1.1 kg/m3
[1]; 363.15 K
  viscosity: 8.8 ± 0.4 mPa·s
  mass density: 1371.5 ± 1.1 kg/m3
[2]; 283.15 K
  refractive index: 1.4164 ± 0.0017
[2]; 288.15 K
  refractive index: 1.415 ± 0.0017
[2]; 293.15 K
  refractive index: 1.4136 ± 0.0017
[2]; 298.15 K
  refractive index: 1.4121 ± 0.0017
[2]; 303.15 K
  refractive index: 1.4107 ± 0.0017
[2]; 308.15 K
  refractive index: 1.4092 ± 0.0017
[2]; 313.15 K
  refractive index: 1.4078 ± 0.0017
[2]; 318.15 K
  refractive index: 1.4065 ± 0.0017
[2]; 323.15 K
  refractive index: 1.4051 ± 0.0017
[2]; 328.15 K
  refractive index: 1.4037 ± 0.0017
[2]; 333.15 K
  refractive index: 1.4024 ± 0.0017
[2]; 338.15 K
  refractive index: 1.4011 ± 0.0017
[2]; 343.15 K
  refractive index: 1.3998 ± 0.0017
[2]; 348.15 K
  refractive index: 1.3985 ± 0.0017
[2]; 353.15 K
  refractive index: 1.3972 ± 0.0017
[2]; 358.15 K
  refractive index: 1.3959 ± 0.0017
